Source: patent US20200079765A1, “SUBSTITUTED HETEROARYL PYRROLONES AND SALTS THEREOF AND USE THEREOF AS HERBICIDAL ACTIVE SUBSTANCES” (Bayer CropScience Aktiengesellschaft, priority 2016, published 2020)

Assays:
Type in all cases: in vivo
Avena fatua [1] = experiment: Post-emergence herbicidal action (Experimental Part 1, A); details: rated visually after about 3 weeks
Description: (§1) Seeds of monocotyledonous and dicotyledonous weeds and crop plants were placed in sandy loam in plastic or wood-fiber pots, covered with soil and cultivated in a greenhouse under controlled growth conditions. 2 to 3 weeks after sowing, the test plants were treated at the one-leaf stage. The compounds of the invention, formulated in the form of wettable powders (WP) or as emulsion concentrates (EC), were then sprayed onto the green parts of the plants as aqueous suspension or emulsion with addition of 0.5% additive at a water application rate of 600 l/ha (converted). After the test plants had been kept in the greenhouse under optimum growth conditions for about 3 weeks, the activity of the preparations was rated visually in comparison to untreated controls. For example, 100% activity=the plants have died, 0% activity=like control plants. Tables A1 to A14 below show the effects of selected compounds of the general formula (I) according to Tables I.1 to I.116 on various harmful plants and an application rate corresponding to 1280 g/ha or 320 g/ha, which were obtained by the experimental procedure mentioned above.

Polygonum convolvulus [2] = experiment: as above; details: rated visually after about 3 weeks
Description: as §1

Amaranthus retroflexus [3] = experiment: as above; details: about 3 weeks after treatment, 100% = plants have died, 0% = like control plants
Description: as §1

Viola tricolor [4] = experiment: as above; details: rated visually after about 3 weeks
Description: as §1

Hordeum murinum [5] = experiment: as above; details: application rate 1280 g/ha, rated visually after about 3 weeks
Description: as §1

Ipomoea purpurea [6] = experiment: as above; details: application rate 1280 g/ha, rated visually after about 3 weeks
Description: as §1

Lolium rigidum [7] = experiment: as above; details: application rate 1280 g/ha, rated visually after about 3 weeks
Description: as §1

Stellaria media [8] = experiment: as above; details: rated visually after about 3 weeks
Description: as §1

Echinochloa crus-galli [9] = experiment: as above; details: about 3 weeks after treatment, 100% = plants have died, 0% = like control plants
Description: as §1

Matricaria inodora [10] = experiment: as above; details: rated visually after about 3 weeks
Description: as §1

Veronica persica [11] = experiment: as above; details: application rate 1280 g/ha, about 3 weeks after treatment, 100% = plants have died, 0% = like control plants
Description: as §1

Alopecurus myosuroides [12] = experiment: as above; details: about 3 weeks after treatment, 100% = plants have died, 0% = like control plants
Description: as §1

Abutilon theophrasti [13] = experiment: as above; details: about 3 weeks after treatment, 100% = plants have died, 0% = like control plants
Description: as §1

Setaria viridis [14] = experiment: as above; details: about 3 weeks after treatment, 100% = plants have died, 0% = like control plants
Description: as §1

Avena fatua [15] = experiment: Pre-emergence herbicidal action (Experimental Part 1, B); details: scored visually after about 3 weeks
Source text: (§2) Seeds of monocotyledonous and dicotyledonous weed plants and crop plants were placed in plastic or organic planting pots and covered with soil. The compounds of the invention, formulated in the form of wettable powders (WP) or as emulsion concentrates (EC), were then applied onto the surface of the covering soil as aqueous suspension or emulsion with addition of 0.5% additive at a water application rate of 600 l/ha (converted). After the treatment, the pots were placed in a greenhouse and kept under good growth conditions for the test plants. After about 3 weeks, the effect of the preparations was scored visually in comparison with untreated controls as percentages. For example, 100% activity=the plants have died, 0% activity=like control plants. Tables B1 to B14 below show the effects of selected compounds of the general formula (I) according to Tables I.1 to I.116 on various harmful plants and an application rate corresponding to 1280 g/ha or 320 g/ha, which were obtained by the experimental procedure mentioned above.

Polygonum convolvulus [16] = experiment: as above; details: scored visually after about 3 weeks
Source text: as §2

Amaranthus retroflexus [17] = experiment: as above; details: scored visually after about 3 weeks
Source text: as §2

Viola tricolor [18] = experiment: as above; details: scored visually after about 3 weeks
Source text: as §2

Hordeum murinum [19] = experiment: as above; details: scored visually after about 3 weeks
Source text: as §2

Ipomoea purpurea [20] = experiment: as above; details: application rate 1280 g/ha, scored visually after about 3 weeks
Source text: as §2

Lolium rigidum [21] = experiment: as above; details: application rate 1280 g/ha, scored visually after about 3 weeks
Source text: as §2

Stellaria media [22] = experiment: as above; details: scored visually after about 3 weeks
Source text: as §2

Echinochloa crus-galli [23] = experiment: as above; details: application rate 1280 g/ha, scored visually after about 3 weeks
Source text: as §2

Matricaria inodora [24] = experiment: as above; details: scored visually after about 3 weeks
Source text: as §2

Veronica persica [25] = experiment: as above; details: application rate 1280 g/ha, scored visually after about 3 weeks
Source text: as §2

Alopecurus myosuroides [26] = experiment: as above; details: scored visually after about 3 weeks
Source text: as §2

Abutilon theophrasti [27] = experiment: as above; details: scored visually after about 3 weeks
Source text: as §2

Setaria viridis [28] = experiment: as above; details: scored visually after about 3 weeks
Source text: as §2

## CC(=O)OC1C(C)=CC(=O)N1c1cc(C(C)(C)C)on1 (stereo not drawn) [I.3-162]
Avena fatua [1]; application rate 320 g/ha
  Avena fatua, herbicidal activity: 90%
Avena fatua [1]; application rate 1280 g/ha
  Avena fatua, herbicidal activity: 90%
Polygonum convolvulus [2]; application rate 320 g/ha
  Polygonum convolvulus, herbicidal activity: 100%
Polygonum convolvulus [2]; application rate 1280 g/ha
  Polygonum convolvulus, herbicidal activity: 100%
Amaranthus retroflexus [3]; application rate 320 g/ha
  herbicidal activity on Amaranthus retroflexus (visual rating vs untreated controls): 90%
Amaranthus retroflexus [3]; application rate 1280 g/ha
  herbicidal activity on Amaranthus retroflexus (visual rating vs untreated controls): 100%
Viola tricolor [4]; application rate 320 g/ha
  Viola tricolor, herbicidal activity: 100%
Viola tricolor [4]; application rate 1280 g/ha
  Viola tricolor, herbicidal activity: 100%
Hordeum murinum [5]
  Hordeum murinum, herbicidal activity: 100%
Ipomoea purpurea [6]
  Ipomoea purpurea, herbicidal activity: 90%
Lolium rigidum [7]
  Lolium rigidum, herbicidal activity: 90%
Stellaria media [8]; application rate 320 g/ha
  Stellaria media, herbicidal activity: 100%
Stellaria media [8]; application rate 1280 g/ha
  Stellaria media, herbicidal activity: 100%
Echinochloa crus-galli [9]; application rate 320 g/ha
  herbicidal activity on Echinochloa crus-galli (visual rating vs untreated controls): 90%
Echinochloa crus-galli [9]; application rate 1280 g/ha
  herbicidal activity on Echinochloa crus-galli (visual rating vs untreated controls): 100%
Matricaria inodora [10]; application rate 320 g/ha
  Matricaria inodora, herbicidal activity: 100%
Matricaria inodora [10]; application rate 1280 g/ha
  Matricaria inodora, herbicidal activity: 100%
Veronica persica [11]
  herbicidal activity on Veronica persica (visual rating vs untreated controls): 100%
Alopecurus myosuroides [12]; application rate 320 g/ha
  herbicidal activity on Alopecurus myosuroides (visual rating vs untreated controls): 100%
Alopecurus myosuroides [12]; application rate 1280 g/ha
  herbicidal activity on Alopecurus myosuroides (visual rating vs untreated controls): 100%
Abutilon theophrasti [13]; application rate 320 g/ha
  herbicidal activity on Abutilon theophrasti (visual rating vs untreated controls): 100%
Abutilon theophrasti [13]; application rate 1280 g/ha
  herbicidal activity on Abutilon theophrasti (visual rating vs untreated controls): 100%
Setaria viridis [14]; application rate 320 g/ha
  herbicidal activity on Setaria viridis (visual rating vs untreated controls): 100%
Setaria viridis [14]; application rate 1280 g/ha
  herbicidal activity on Setaria viridis (visual rating vs untreated controls): 100%
Avena fatua [15]; application rate 320 g/ha
  Avena fatua, herbicidal activity: 90%
Avena fatua [15]; application rate 1280 g/ha
  Avena fatua, herbicidal activity: 90%
Polygonum convolvulus [16]; application rate 320 g/ha
  Polygonum convolvulus, herbicidal activity: 100%
Polygonum convolvulus [16]; application rate 1280 g/ha
  Polygonum convolvulus, herbicidal activity: 100%
Amaranthus retroflexus [17]; application rate 320 g/ha
  Amaranthus retroflexus, herbicidal activity: 100%
Amaranthus retroflexus [17]; application rate 1280 g/ha
  Amaranthus retroflexus, herbicidal activity: 100%
Viola tricolor [18]; application rate 320 g/ha
  Viola tricolor, herbicidal activity: 100%
Viola tricolor [18]; application rate 1280 g/ha
  Viola tricolor, herbicidal activity: 100%
Hordeum murinum [19]; application rate 320 g/ha
  Hordeum murinum, herbicidal activity: 90%
Hordeum murinum [19]; application rate 1280 g/ha
  Hordeum murinum, herbicidal activity: 100%
Ipomoea purpurea [20]
  Ipomoea purpurea, herbicidal activity: 90%
Lolium rigidum [21]
  Lolium rigidum, herbicidal activity: 90%
Stellaria media [22]; application rate 320 g/ha
  Stellaria media, herbicidal activity: 90%
Stellaria media [22]; application rate 1280 g/ha
  Stellaria media, herbicidal activity: 100%
Echinochloa crus-galli [23]
  Echinochloa crus-galli, herbicidal activity: 100%
Matricaria inodora [24]; application rate 320 g/ha
  Matricaria inodora, herbicidal activity: 100%
Matricaria inodora [24]; application rate 1280 g/ha
  Matricaria inodora, herbicidal activity: 100%
Veronica persica [25]
  Veronica persica, herbicidal activity: 100%
Alopecurus myosuroides [26]; application rate 320 g/ha
  Alopecurus myosuroides, herbicidal activity: 90%
Alopecurus myosuroides [26]; application rate 1280 g/ha
  Alopecurus myosuroides, herbicidal activity: 90%
Abutilon theophrasti [27]; application rate 320 g/ha
  Abutilon theophrasti, herbicidal activity: 100%
Abutilon theophrasti [27]; application rate 1280 g/ha
  Abutilon theophrasti, herbicidal activity: 100%
Setaria viridis [28]; application rate 320 g/ha
  Setaria viridis, herbicidal activity: 100%
Setaria viridis [28]; application rate 1280 g/ha
  Setaria viridis, herbicidal activity: 100%
